Laboratory results as given in patent US11464770B2, “Anticancer pharmaceutical composition” (NATIONAL CANCER CENTER, priority 2016, dated 2022).
Read-outs that look alike come from different tables or passages of the source.

Tests used:
[1] = test system: blood cancer cell lines (e.g. HL-60, Jurkat, Raji, Ramos, Daudi, MOLT-4); test: Cell based assay, cell viability (CellTiter-Glo), blood cancer cell lines; conditions: Homo sapiens
How it was run: (§1)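 Luminescent ATP assay quantified surviving cells after three days of treatment. Compound was applied at final concentrations of 0 to 2 μM, starting 24 h after cells were seeded.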

[2] = test system: pancreatic cancer cell lines (e.g. MIA PaCa-2); test: Cell based assay, cell viability (CellTiter-Glo), pancreatic cancer cell lines; conditions: Homo sapiens
How it was run: as §1

neuroblastoma cell lines = test: Cell based assay, cell viability (CellTiter-Glo), neuroblastoma cell lines; conditions: Homo sapiens; SH-SY5Y cell line
How it was run: as §1

renal cancer cell lines = test: Cell based assay, cell viability (CellTiter-Glo), renal cancer cell lines; conditions: Homo sapiens; ACHN cells
How it was run: as §1

[3] = test system: MBT-2: Mouse bladder transitional cell carcinoma; test: Cell based assay, cytotoxicity in MBT-2 cells; conditions: 72 hours
Method: (§2) Commercially available bladder cancer, prostate cancer, lung cancer, breast cancer, blood cancer, pancreatic cancer, colorectal cancer, brain cancer, neuroblastoma, melanoma, liver cancer, cervical carcinoma, ovarian cancer, renal cancer, and papilloma cell lines were each treated with trypsin-EDTA and cultured, followed by being seeded in each well of a 96 well plate. After 24 hours of treatment at constant temperature, the respective cells were treated with the candidate compound so that a final concentration became 0 to 2 μM. The treated cells were additionally cultured for 72 hours, and cell viability was measured by using an ATP detection method (CellTiter-Glo® Luminescent Cell Viability Assay, Promega).

[4] = test system: UM-UC-3: human urinary bladder transitional cell carcinoma; test: Cell based assay, cytotoxicity in UM-UC-3 cells; conditions: UMUC3, 72 hours
Method: as §2

[5] = MV4-11, blood cancer cell line MV-4-11, 72 hours, read-out: IC50, MV-4-11
[6] = blood cancer cell line Daudi, 72 hours, read-out: IC50, Daudi
[7] = blood cancer cell line HL-60, 72 hours, read-out: IC50, HL-60
[8] = blood cancer cell line Jurkat, 72 hours, read-out: IC50, Jurkat
[9] = blood cancer cell line MOLT-4, 72 hours, read-out: IC50, MOLT-4
[10] = blood cancer cell line Raji, 72 hours, read-out: IC50, Raji
[11] = blood cancer cell line Ramos (RA 1), 72 hours, read-out: IC50, Ramos (RA 1)
[12] = blood cancer cell line U-937, 72 hours, read-out: IC50, U-937
[13] = pancreatic cancer cell line AsPC-1, 72 hours, read-out: IC50, AsPC-1
[14] = pancreatic cancer cell line BxPC-3, 72 hours, read-out: IC50, BxPC-3
[15] = pancreatic cancer cell line CFPAC-1, 72 hours, read-out: IC50, CFPAC-1
[16] = pancreatic cancer cell line Capan-1, 72 hours, read-out: IC50, Capan-1
[17] = pancreatic cancer cell line Capan-2, 72 hours, read-out: IC50, Capan-2
[18] = pancreatic cancer cell line MIA PaCa-2, 72 hours, read-out: IC50, MIA PaCa-2
[19] = pancreatic cancer cell line PANC-1, 72 hours, read-out: IC50, PANC-1

| SMILES | IC50 [1, 5] | IC50 [1, 6] | IC50 [1, 7] | IC50 [1, 8] | IC50 [1, 9] | IC50 [1, 10] | IC50 [1, 11] | IC50 [1, 12] | IC50 [2, 13] | IC50 [2, 14] | IC50 [2, 15] | IC50 [2, 16] | IC50 [2, 17] | IC50 [2, 18] | IC50 [2, 19] | IC50 (neuroblastoma cell lines) | IC50 (renal cancer cell lines) | IC50 [3] | IC50 [4] |
| --- | --- | --- | --- | --- | --- | --- | --- | --- | --- | --- | --- | --- | --- | --- | --- | --- | --- | --- | --- |
| CC(=O)c1c(SCc2ccccc2)nc2c(Br)ccc(Cl)c2c1O [Compound 52, 1-(2-(benzylthio)-8-bromo-5-chloro-4-hydroxyquinolin-3-yl)ethan-1-one] | > 2000 nM | > 2000 nM | > 2000 nM | > 2000 nM | > 2000 nM | > 2000 nM | > 2000 nM | > 2000 nM | > 2000 nM | > 2000 nM | > 10000 nM | > 2000 nM | > 2000 nM | > 2000 nM | > 2000 nM | > 2000 nM | > 2000 nM |  |  |
| CC(=O)c1c([S+]([O-])Cc2ccccc2)n(C(=O)c2ccc(Br)cc2)c2c(Br)ccc(Cl)c2c1=O (stereo not shown) [Compound 20, 3-acetyl-2-(benzylsulfinyl)-8-bromo-1-(4-bromobenzoyl)-5-chloroquinolin-4(1H)-one] | > 2000 nM | > 2000 nM | > 2000 nM | > 2000 nM | > 2000 nM | 1180 nM | 1510 nM | > 2000 nM | > 2000 nM | > 2000 nM | > 10000 nM | > 2000 nM | > 2000 nM | > 2000 nM | > 2000 nM | > 2000 nM | > 2000 nM |  |  |
| CC(=O)c1c([S+](C)[O-])n(C(C)=O)c2c(Br)ccc(Cl)c2c1=O (stereo not shown) [Compound 19, 1,1′-(8-bromo-5-chloro-2-(methylsulfinyl)-4-oxoquinoline-1,3(4H)-diyl)bis(ethan-1-one)] | > 2000 nM | > 2000 nM | > 2000 nM | > 2000 nM | > 2000 nM | > 2000 nM | > 2000 nM | > 2000 nM | > 2000 nM | > 2000 nM | > 10000 nM | > 2000 nM | > 2000 nM | > 2000 nM | > 2000 nM | > 2000 nM | > 2000 nM |  |  |
| CC(=O)c1c([S+]([O-])Cc2cnc3[nH]ccc3c2)[nH]c2c(Br)ccc(Cl)c2c1=O (stereo not shown) [Compound 107, 2-(((1H-pyrrolo[2,3-b]pyridin-5-yl)methyl)sulfinyl)-3-acetyl-8-bromo-5-chloroquinolin-4(1H)-one] | > 2000 nM | > 2000 nM | > 2000 nM | > 2000 nM | > 2000 nM | > 2000 nM | > 2000 nM | > 2000 nM | > 2000 nM | > 2000 nM | > 10000 nM | > 2000 nM | > 2000 nM | > 2000 nM | > 2000 nM | > 2000 nM | > 2000 nM |  |  |
| CC(=O)c1c([S+]([O-])CC#N)[nH]c2c(Br)ccc(Cl)c2c1=O (stereo not shown) [Compound 65, 2-((3-acetyl-8-bromo-5-chloro-4-oxo-1,4-dihydroquinolin-2-yl)sulfinyl)acetonitrile] | > 2000 nM | > 2000 nM | > 2000 nM | > 2000 nM | > 2000 nM | > 2000 nM | > 2000 nM | > 2000 nM | > 2000 nM | > 2000 nM | > 10000 nM | > 2000 nM | > 2000 nM | > 2000 nM | > 2000 nM | > 2000 nM | > 2000 nM |  |  |
| CC(=O)c1c([S+]([O-])Cc2ccc(-n3cccn3)nc2)[nH]c2c(Br)ccc(Cl)c2c1=O (stereo not shown) [Compound 99, 2-(((6-(1H-pyrazol-1-yl)pyridin-3-yl)methyl)sulfinyl)-3-acetyl-8-bromo-5-chloroquinolin-4(1H)-one] | 950 nM | 1000 nM | > 2000 nM | 440 nM | 730 nM | 1250 nM | 840 nM | 1360 nM | 1490 nM | > 2000 nM | > 10000 nM | 1990 nM | > 2000 nM | 720 nM | > 2000 nM | 450 nM | 1210 nM | 0.47 µM | 0.77 µM |
| CC(=O)c1c(SCC#N)[nH]c2c(Br)ccc(Cl)c2c1=O [Compound 66, 2-((3-acetyl-8-bromo-5-chloro-4-oxo-1,4-dihydroquinolin-2-yl)thio)acetonitrile] | > 2000 nM | > 2000 nM | > 2000 nM | > 2000 nM | > 2000 nM | > 2000 nM | > 2000 nM | > 2000 nM | > 2000 nM | > 2000 nM | > 10000 nM | > 2000 nM | > 2000 nM | > 2000 nM | > 2000 nM | > 2000 nM | > 2000 nM |  |  |
| Cc1cc(C[S+]([O-])c2[nH]c3c(Br)ccc(Cl)c3c(=O)c2C(=O)C2CC2)no1 (stereo not shown) [Compound 96, 8-bromo-5-chloro-3-(cyclopropanecarbonyl)-2-(((5-methylisoxazol-3-yl)methyl)sulfinyl)quinolin-4(1H)-one] | 1160 nM | 1370 nM | 1650 nM | 590 nM | > 2000 nM | 1660 nM | 1060 nM | > 2000 nM | > 2000 nM | > 2000 nM | > 10000 nM | > 2000 nM | > 2000 nM | 1140 nM | > 2000 nM | 770 nM | 1670 nM |  |  |
| CC(=O)c1c(S(C)(=O)=O)n(S(=O)(=O)c2ccc(C(C)(C)C)cc2)c2c(Br)ccc(Cl)c2c1=O [Compound 41, 3-acetyl-8-bromo-1-((4-(tert-butyl)phenyl)sulfonyl)-5-chloro-2-(methylsulfonyl)quinolin-4(1H)-one] | > 2000 nM | > 2000 nM | > 2000 nM | > 2000 nM | > 2000 nM | > 2000 nM | > 2000 nM | > 2000 nM | > 2000 nM | > 2000 nM | > 10000 nM | > 2000 nM | > 2000 nM | > 2000 nM | > 2000 nM | > 2000 nM | > 2000 nM |  |  |
| CSc1c(C(C)=O)c(=O)c2c(Cl)ccc(Br)c2n1S(C)(=O)=O [Compound 35, 3-acetyl-8-bromo-5-chloro-1-(methylsulfonyl)-2-(methylthio)quinolin-4(1H)-one] | > 2000 nM | > 2000 nM | > 2000 nM | > 2000 nM | > 2000 nM | > 2000 nM | > 2000 nM | > 2000 nM | > 2000 nM | > 2000 nM | > 10000 nM | > 2000 nM | > 2000 nM | > 2000 nM | > 2000 nM | > 2000 nM | > 2000 nM |  |  |
| CC(=O)c1c(SCc2ccc([N+](=O)[O-])cc2)[nH]c2c(Br)ccc(Cl)c2c1=O [Compound 32, 3-acetyl-8-bromo-5-chloro-2-((4-nitrobenzyl)thio)quinolin-4(1H)-one] | > 2000 nM | > 2000 nM | > 2000 nM | > 2000 nM | > 2000 nM | > 2000 nM | > 2000 nM | > 2000 nM | > 2000 nM | > 2000 nM | > 10000 nM | > 2000 nM | > 2000 nM | > 2000 nM | > 2000 nM | > 2000 nM | > 2000 nM |  |  |
| CC(=O)c1c(SCc2ccccc2)n(C(=O)c2ccc(Br)cc2)c2c(Br)ccc(Cl)c2c1=O [Compound 23, 3-acetyl-2-(benzylthio)-8-bromo-1-(4-bromobenzoyl)-5-chloroquinolin-4(1H)-one] | > 2000 nM | > 2000 nM | > 2000 nM | > 2000 nM | > 2000 nM | > 2000 nM | > 2000 nM | > 2000 nM | > 2000 nM | > 2000 nM | > 10000 nM | > 2000 nM | > 2000 nM | > 2000 nM | > 2000 nM | > 2000 nM | > 2000 nM |  |  |
| O=C(c1c([S+]([O-])Cc2ccc(SC(F)(F)F)cc2)[nH]c2c(Br)ccc(Cl)c2c1=O)C1CC1 (stereo not shown) [Compound 101, 8-bromo-5-chloro-3-(cyclopropanecarbonyl)-2-((4-((trifluoromethyl)thio)benzyl)sulfinyl)quinolin-4(1H)-one] | > 2000 nM | 1040 nM | > 2000 nM | 1010 nM | 1160 nM | 1790 nM | 1480 nM | > 2000 nM | > 2000 nM | > 2000 nM | > 10000 nM | > 2000 nM | > 2000 nM | 1830 nM | > 2000 nM | 1400 nM | > 2000 nM |  |  |
